Data published in ChEMBL document CHEMBL5543144, “Discovery of a Novel Potent Tetrazole Antifungal Candidate with High Selectivity and Broad Spectrum” (J Med Chem, 2024).
In brackets after ≈: the same amount, converted by molar mass.

How the values were obtained:
Format in all cases: functional
Cryptococcus neoformans = test: Antifungal activity against Cryptococcus neoformans H99 assessed as inhibition of fungal growth incubated for 72 hrs by CLSI protocol based microbroth dilution method
Nakaseomyces glabratus = test: Antifungal activity against Candida glabrata 537 assessed as inhibition of fungal growth incubated for 48 hrs by CLSI protocol based microbroth dilution method
Aspergillus fumigatus = test: Antifungal activity against Aspergillus fumigatus 7544 assessed as inhibition of fungal growth incubated for 48 hrs by CLSI protocol based microbroth dilution method
Candida tropicalis = test: Antifungal activity against Candida tropicalis 2718 assessed as inhibition of fungal growth incubated for 24 hrs by CLSI protocol based microbroth dilution method
Candida albicans = test: Antifungal activity against Candida albicans SC5314 assessed as inhibition of fungal growth incubated for 24 hrs by CLSI protocol based microbroth dilution method
Candida parapsilosis = test: Antifungal activity against Candida parapsilosis 22019 assessed as inhibition of fungal growth incubated for 24 hrs by CLSI protocol based microbroth dilution method; conditions: Lodderomyces parapsilosis
Pichia kudriavzevii = test: Antifungal activity against Candida krusei 4946 assessed as inhibition of fungal growth incubated for 24 hrs by CLSI protocol based microbroth dilution method

SMILES | MIC50 (Cryptococcus neoformans) [µg/mL] | MIC50 (Nakaseomyces glabratus) [µg/mL] | MIC50 (Aspergillus fumigatus) [µg/mL] | MIC50 (Candida tropicalis) [µg/mL] | MIC50 (Candida albicans) [µg/mL] | MIC50 (Candida parapsilosis) [µg/mL] | MIC50 (Pichia kudriavzevii) [µg/mL]
C[C@@H](n1ncc2ccccc2c1=O)[C@](O)(Cn1cncn1)c1ccc(F)cc1F | 0.063 (≈ 0.159 µM) | 0.031 (≈ 0.078 µM) | 4 (≈ 10.1 µM) | 0.063 (≈ 0.159 µM) | 0.008 (≈ 0.0201 µM) | 0.063 (≈ 0.159 µM) | 1 (≈ 2.52 µM)
C[C@@H](n1ccc2cc(-c3ccccc3)ccc2c1=O)[C@](O)(Cn1cncn1)c1ccc(F)cc1F | 0.5 (≈ 1.06 µM) | 0.063 (≈ 0.133 µM) | 8 (≈ 16.9 µM) | 0.016 (≈ 0.0339 µM) | < 0.008 | 0.063 (≈ 0.133 µM) | 1 (≈ 2.12 µM)
C[C@@H](n1ncc2cc(Br)ccc2c1=O)[C@](O)(Cn1cncn1)c1ccc(F)cc1F | < 0.008 | 0.016 (≈ 0.0336 µM) | 1 (≈ 2.1 µM) | < 0.008 | < 0.008 | < 0.008 | 0.063 (≈ 0.132 µM)
C[C@@H](n1ncc2cn(-c3ccc(F)cc3)nc2c1=O)[C@](O)(Cn1cncn1)c1ccc(F)cc1F | 2 (≈ 4.15 µM) | 4 (≈ 8.31 µM) | > 64 | 1 (≈ 2.08 µM) | 0.25 (≈ 0.519 µM) | 2 (≈ 4.15 µM) | 8 (≈ 16.6 µM)
C[C@@H](n1ccc2cc(Cl)ccc2c1=O)[C@](O)(Cn1cncn1)c1cc(F)ccc1F | < 0.008 | < 0.008 | 0.25 (≈ 0.58 µM) | < 0.008 | < 0.008 | < 0.008 | 0.063 (≈ 0.146 µM)
C[C@@H](n1ccc2cc(F)ccc2c1=O)[C@](O)(Cn1cncn1)c1ccc(F)cc1F | < 0.008 | 0.016 (≈ 0.0386 µM) | 0.25 (≈ 0.603 µM) | < 0.008 | < 0.008 | < 0.008 | 0.016 (≈ 0.0386 µM)
C[C@@H](n1ccc2cc(F)ccc2c1=O)[C@](O)(Cn1cnnn1)c1ccc(F)cc1F | 0.016 (≈ 0.0385 µM) | 0.063 (≈ 0.152 µM) | 4 (≈ 9.63 µM) | < 0.008 | < 0.008 | 0.063 (≈ 0.152 µM) | 1 (≈ 2.41 µM)
C[C@@H](n1ccc2cc(C(F)(F)F)ccc2c1=O)[C@](O)(Cn1cncn1)c1ccc(F)cc1F | < 0.008 | < 0.008 | 0.5 (≈ 1.08 µM) | < 0.008 | < 0.008 | < 0.008 | 0.063 (≈ 0.136 µM)
C[C@@H](n1cnc2cc(OC(F)(F)F)ccc2c1=O)[C@](O)(Cn1cnnn1)c1ccc(F)cc1F | 0.125 (≈ 0.259 µM) | < 0.008 | 32 (≈ 66.3 µM) | 0.031 (≈ 0.0643 µM) | < 0.008 | 0.25 (≈ 0.518 µM) | > 4
C[C@@H](n1cnc2cc(F)ccc2c1=O)[C@](O)(Cn1cnnn1)c1ccc(F)cc1F | 4 (≈ 9.61 µM) | 0.25 (≈ 0.6 µM) | 16 (≈ 38.4 µM) | 0.25 (≈ 0.6 µM) | < 0.008 | 0.5 (≈ 1.2 µM) | > 4
C[C@@H](n1ncc2cn(-c3ccc(OC(F)(F)F)cc3)nc2c1=O)[C@](O)(Cn1cncn1)c1ccc(F)cc1F | > 64 | 1 (≈ 1.83 µM) | > 64 | 0.5 (≈ 0.913 µM) | 0.5 (≈ 0.913 µM) | 0.5 (≈ 0.913 µM) | > 64
C[C@@H](n1ncc2cn(-c3ccccc3)nc2c1=O)[C@](O)(Cn1cncn1)c1ccc(F)cc1F | > 64 | 1 (≈ 2.16 µM) | > 64 | 0.5 (≈ 1.08 µM) | 0.5 (≈ 1.08 µM) | 1 (≈ 2.16 µM) | > 64
COc1ccc2c(=O)n([C@H](C)[C@](O)(Cn3cncn3)c3ccc(F)cc3F)ccc2c1 | < 0.008 | < 0.008 | 1 (≈ 2.35 µM) | < 0.008 | < 0.008 | < 0.008 | 0.125 (≈ 0.293 µM)
C[C@@H](n1ncc2cc(Cl)ccc2c1=O)[C@](O)(Cn1cncn1)c1cc(F)ccc1F | < 0.008 | < 0.008 | 0.25 (≈ 0.579 µM) | < 0.008 | < 0.008 | < 0.008 | 0.125 (≈ 0.289 µM)
C[C@@H](n1ncc2cn(-c3ccc(C(F)(F)F)cc3)nc2c1=O)[C@](O)(Cn1cncn1)c1ccc(F)cc1F | 1 (≈ 1.88 µM) | 0.5 (≈ 0.941 µM) | > 64 | 0.5 (≈ 0.941 µM) | 0.25 (≈ 0.47 µM) | 0.5 (≈ 0.941 µM) | 16 (≈ 30.1 µM)
C[C@@H](n1ncc2cn(-c3ccc(C#N)cc3)nc2c1=O)[C@](O)(Cn1cncn1)c1ccc(F)cc1F | 8 (≈ 16.4 µM) | 0.5 (≈ 1.02 µM) | > 64 | 1 (≈ 2.05 µM) | 0.5 (≈ 1.02 µM) | 1 (≈ 2.05 µM) | > 64
C[C@@H](n1ccc2cc(Br)ccc2c1=O)[C@](O)(Cn1cncn1)c1ccc(F)cc1F | < 0.008 | < 0.008 | 1 (≈ 2.1 µM) | < 0.008 | < 0.008 | < 0.008 | 0.063 (≈ 0.133 µM)
C[C@@H](n1ccc2ccccc2c1=O)[C@](O)(Cn1cncn1)c1ccc(F)cc1F | 0.016 (≈ 0.0404 µM) | 0.016 (≈ 0.0404 µM) | 0.5 (≈ 1.26 µM) | 0.016 (≈ 0.0404 µM) | < 0.008 | 0.016 (≈ 0.0404 µM) | 0.125 (≈ 0.315 µM)
C[C@@H](n1ncc2cn(-c3ccc(Cl)cc3)nc2c1=O)[C@](O)(Cn1cncn1)c1ccc(F)cc1F | 4 (≈ 8.03 µM) | 1 (≈ 2.01 µM) | > 64 | 1 (≈ 2.01 µM) | 0.5 (≈ 1 µM) | 1 (≈ 2.01 µM) | > 64
C[C@@H](n1ncc2cn(-c3ccc(Cl)c(Cl)c3)nc2c1=O)[C@](O)(Cn1cncn1)c1ccc(F)cc1F | > 64 | 0.5 (≈ 0.939 µM) | > 64 | 0.25 (≈ 0.47 µM) | 0.125 (≈ 0.235 µM) | 0.25 (≈ 0.47 µM) | > 64
C[C@@H](n1cnc2cc(C(F)(F)F)ccc2c1=O)[C@](O)(Cn1cnnn1)c1ccc(F)cc1F | 4 (≈ 8.58 µM) | < 0.008 | 16 (≈ 34.3 µM) | < 0.008 | < 0.008 | 0.125 (≈ 0.268 µM) | > 4
C[C@@H](n1ncc2cn(-c3ccc(F)c(F)c3)nc2c1=O)[C@](O)(Cn1cncn1)c1ccc(F)cc1F | > 64 | 1 (≈ 2 µM) | > 64 | 0.25 (≈ 0.501 µM) | 0.5 (≈ 1 µM) | 1 (≈ 2 µM) | > 64
C[C@@H](n1ccc2cc(OC(F)(F)F)ccc2c1=O)[C@](O)(Cn1cncn1)c1ccc(F)cc1F | < 0.008 | < 0.008 | 1 (≈ 2.08 µM) | < 0.008 | < 0.008 | < 0.008 | 0.063 (≈ 0.131 µM)
Cc1ccc2c(=O)n([C@H](C)[C@](O)(Cn3cncn3)c3ccc(F)cc3F)ccc2c1 | < 0.008 | < 0.008 | 0.5 (≈ 1.22 µM) | < 0.008 | < 0.008 | < 0.008 | 0.125 (≈ 0.305 µM)
C[C@@H](n1ccc2cc(F)ccc2c1=O)[C@](O)(Cn1cncn1)c1cc(F)ccc1F | < 0.008 | < 0.008 | 0.25 (≈ 0.603 µM) | < 0.008 | < 0.008 | < 0.008 | 0.125 (≈ 0.302 µM)
C[C@@H](n1ncc2cn(-c3ccc(F)c(Cl)c3)nc2c1=O)[C@](O)(Cn1cncn1)c1ccc(F)cc1F | > 64 | 8 (≈ 15.5 µM) | > 64 | 0.5 (≈ 0.969 µM) | 0.5 (≈ 0.969 µM) | 2 (≈ 3.88 µM) | > 64
